# In ChEMBL document CHEMBL5634158, “From garden to lab: C-3 chemical modifications of tomatidine unveil broad-spectrum ATP synthase inhibitors to combat bacterial resistance” (Eur J Med Chem, 2023):
# pIC50: −log10 of the molar value.
# Experiments:
# Escherichia coli [1] = assay: Antibacterial activity against Escherichia coli ATCC 25922 assessed as reduction in microbial growth incubated for 20 hrs under aerobic condition by CLSI based broth microdilution method; assay type: functional
# Staphylococcus aureus [2] = assay: Antibacterial activity against Staphylococcus aureus ATCC 29213 assessed as reduction in microbial growth incubated for 20 hrs under aerobic condition by CLSI based broth microdilution method; assay type: functional
# Staphylococcus aureus [3] = assay: Antibacterial activity against Staphylococcus aureus ATCC 29213 hemB SCV assessed as reduction in microbial growth incubated for 20 hrs under aerobic condition by CLSI based broth microdilution method; assay type: functional
# Escherichia coli [4] = assay: Antibacterial activity against Escherichia coli MC4100 assessed as reduction in bacterial growth by CLSI based broth microdilution method; assay type: functional
# Escherichia coli [5] = assay: Antibacterial activity against Escherichia coli MC4100 harbouring acrAB mutant assessed as reduction in bacterial growth by CLSI based broth microdilution method; assay type: functional
# Escherichia coli [6] = assay: Antibacterial activity against Escherichia coli MC4100 harbouring lptD mutant assessed as reduction in bacterial growth by CLSI based broth microdilution method; assay type: functional
# [7] = Inhibition of Escherichia coli ATCC 25922 ATP synthase activity preincubated for 30 mins followed by NADH/ADP addition and measured after 60 mins by luciferin/luciferase luminescence assay
# Escherichia coli [8] = assay: Antibacterial activity against Escherichia coli ATCC 25922 assessed as fold decrease in MIC for 20 hrs under aerobic condition by CLSI based broth microdilution method; assay type: functional
# Escherichia coli [9] = assay: Antibacterial activity against antibiotic susceptible Escherichia coli ATCC 25922 assessed as reduction in microbial growth incubated for 20 hrs under aerobic condition by CLSI based broth microdilution method; assay type: functional
# Escherichia coli [10] = assay: Antibacterial activity against NDM1-producing carbapenem/antibiotic resistant Escherichia coli ATCC BAA-2471 assessed as reduction in microbial growth incubated for 20 hrs under aerobic condition by CLSI based broth microdilution method; assay type: functional
# Escherichia coli [11] = assay: Antibacterial activity against antibiotic resistant Escherichia coli producing extended spectrum beta-lactamase CTX-M-15 assessed as reduction in microbial growth incubated for 20 hrs under aerobic condition by CLSI based broth microdilution method; assay type: functional
# Escherichia coli [12] = assay: Antibacterial activity against antibiotic susceptible Escherichia coli producing extended spectrum beta-lactamase CTX-M-15 assessed as reduction in microbial growth incubated for 20 hrs under aerobic condition by CLSI based broth microdilution method; assay type: functional
# Escherichia coli [13] = assay: Antibacterial activity against antibiotic susceptible /colistin resistant Escherichia coli harboring mcr-1 gene assessed as reduction in microbial growth incubated for 20 hrs under aerobic condition by CLSI based broth microdilution method; assay type: functional
# Escherichia coli [14] = assay: microbe, parasite or virus in culture; settings: 20 h
# Description: Antibacterial activity against antibiotic resistant Escherichia coli producing extended spectrum beta-lactamase KPC assessed as reduction in microbial growth incubated for 20 hrs under aerobic condition by CLSI based broth microdilution method
# [15] = Inhibition of Staphylococcus aureus ATCC 29213 ATP synthase activity preincubated for 30 mins followed by NADH/ADP addition and measured after 60 mins by luciferin/luciferase luminescence assay
# Staphylococcus aureus [16] = assay: Antibacterial activity against antibiotic susceptible Staphylococcus aureus ATCC 29213 assessed as reduction in microbial growth incubated for 20 hrs under aerobic condition by CLSI based broth microdilution method; assay type: functional
# Staphylococcus aureus [17] = assay: Antibacterial activity against antibiotic resistant Staphylococcus aureus ATCC 29213 hemB SCV assessed as reduction in microbial growth incubated for 20 hrs under aerobic condition by CLSI based broth microdilution method; assay type: functional
# Staphylococcus aureus [18] = assay: Antibacterial activity against antibiotic resistant methicillin resistant Staphylococcus aureus ATCC BAA-41/USA-100 assessed as reduction in microbial growth incubated for 20 hrs under aerobic condition by CLSI based broth microdilution method; assay type: functional
# Staphylococcus aureus [19] = assay: Antibacterial activity against antibiotic resitant/methicillin resistant Staphylococcus aureus ATCC 700699/Mu50 assessed as reduction in microbial growth incubated for 20 hrs under aerobic condition by CLSI based broth microdilution method; assay type: functional
# Escherichia coli [20] = assay: Antibacterial activity against antibiotic susceptible Escherichia coli producing extended spectrum beta-lactamase KPC assessed as reduction in microbial growth incubated for 20 hrs under aerobic condition by CLSI based broth microdilution method; assay type: functional
# Escherichia coli [21] = assay: Antibacterial activity against antibiotic/colistin resistant Escherichia coli harboring mcr-1 gene assessed as reduction in microbial growth incubated for 20 hrs under aerobic condition by CLSI based broth microdilution method; assay type: functional
# Escherichia coli [22] = assay: Antibacterial activity against NDM1-producing carbapenem resistant/antibiotic susceptible Escherichia coli ATCC BAA-2471 assessed as reduction in microbial growth incubated for 20 hrs under aerobic condition by CLSI based broth microdilution method; assay type: functional, organism-based
# Staphylococcus aureus [23] = assay: Antibacterial activity against antibiotic susceptible Staphylococcus aureus ATCC 29213 hemB SCV assessed as reduction in microbial growth incubated for 20 hrs under aerobic condition by CLSI based broth microdilution method; assay type: functional
MIC (Staphylococcus aureus [3]) [µg/mL],Compound,MIC (Escherichia coli [1]) [µg/mL],MIC (Staphylococcus aureus [2]) [µg/mL],MIC (Escherichia coli [4]) [µg/mL],MIC (Escherichia coli [5]) [µg/mL],MIC (Escherichia coli [6]) [µg/mL],pIC50 [7],further results
–,CC(C)(O/N=C(\C(=O)N[C@@H]1C(=O)N2C(C(=O)[O-])=C(C[n+]3ccccc3)CS[C@H]12)c1csc(N)n1)C(=O)O [CEFTAZIDIME],–,–,–,–,–,–,MIC (Escherichia coli [9]): 0.25 µg/mL; MIC (Escherichia coli [10]): > 32 µg/mL; MIC (Escherichia coli [11]): > 32 µg/mL; MIC (Escherichia coli [12]): 1 µg/mL; MIC (Escherichia coli [13]): 0.25 µg/mL; MIC (Escherichia coli [14]): > 32 µg/mL
–,C[C@H]1CC[C@]2(NC1)O[C@H]1C[C@H]3[C@@H]4CC[C@H]5CC(NC[C@@H](N)Cc6ccccc6)CC[C@]5(C)[C@H]4CC[C@]3(C)[C@H]1[C@@H]2C (mixture of isomers),32,4,32,8,4,5.89,–
–,C[C@H]1CC[C@]2(NC1)O[C@H]1C[C@H]3[C@@H]4CC[C@H]5CC(N[C@@H]6CCNC6)CC[C@]5(C)[C@H]4CC[C@]3(C)[C@H]1[C@@H]2C (mixture of isomers),64,32,64,32,32,5.33,–
≤ 0.25,C[C@H]1CC[C@]2(NC1)O[C@H]1C[C@H]3[C@@H]4CC[C@H]5CC(NC[C@@H](N)Cc6ccc(Br)cc6)CC[C@]5(C)[C@H]4CC[C@]3(C)[C@H]1[C@@H]2C (stereo partly specified),8,2,–,–,–,–,fold change (FC) (Escherichia coli [8]): 2
≤ 0.25,C[C@H]1CC[C@]2(NC1)O[C@H]1C[C@H]3[C@@H]4CC[C@H]5CC(NC[C@@H](N)Cc6ccc(Cl)cc6)CC[C@]5(C)[C@H]4CC[C@]3(C)[C@H]1[C@@H]2C (mixture of isomers),8,2,–,–,–,–,fold change (FC) (Escherichia coli [8]): 2
–,O=[N+]([O-])c1ccc(Cl)c2nonc12,–,–,–,–,–,5.40,pIC50 [15]: 5.77
–,C[C@H]1CC[C@]2(NC1)O[C@H]1C[C@H]3[C@@H]4CC[C@H]5CC(NCCN6CCCC6)CC[C@]5(C)[C@H]4CC[C@]3(C)[C@H]1[C@@H]2C (mixture of isomers),64,–,64,8,0.5,6.05,–
–,C[C@H]1CC[C@]2(NC1)O[C@H]1C[C@H]3[C@@H]4CC[C@H]5CC(NC[C@@H](N)Cc6ccc7ccccc7c6)CC[C@]5(C)[C@H]4CC[C@]3(C)[C@H]1[C@@H]2C (mixture of isomers),8,1,16,4,8,5.70,–
1,C[C@H]1CC[C@]2(NC1)O[C@H]1C[C@H]3[C@@H]4CC[C@H]5CC(NC[C@@H](N)Cc6ccc(C(F)(F)F)cc6)CC[C@]5(C)[C@H]4CC[C@]3(C)[C@H]1[C@@H]2C (mixture of isomers),8,2,–,–,–,–,–
–,C[C@H]1CC[C@]2(NC1)O[C@H]1C[C@H]3[C@@H]4CC[C@H]5CC(NC[C@@H](N)Cc6c[nH]c7ccccc67)CC[C@]5(C)[C@H]4CC[C@]3(C)[C@H]1[C@@H]2C (mixture of isomers),8,2,16,4,2,5.72,–
0.5,C[C@H]1CC[C@]2(NC1)O[C@H]1C[C@H]3[C@@H]4CC[C@H]5CC(NC[C@@H](N)Cc6ccccc6C(F)(F)F)CC[C@]5(C)[C@H]4CC[C@]3(C)[C@H]1[C@@H]2C (mixture of isomers),32,2,–,–,–,–,–
≤ 0.25,C[C@H]1CC[C@]2(NC1)O[C@H]1C[C@H]3[C@@H]4CC[C@H]5CC(NC[C@@H](N)Cc6ccc(Cl)cc6Cl)CC[C@]5(C)[C@H]4CC[C@]3(C)[C@H]1[C@@H]2C (mixture of isomers),8,2,–,–,–,–,–
–,NC[C@H]1O[C@H](O[C@H]2[C@H](O)[C@@H](O[C@H]3O[C@H](CO)[C@@H](O)[C@H](N)[C@H]3O)[C@H](N)C[C@@H]2N)[C@H](N)C[C@@H]1O [TOBRAMYCIN],–,–,–,–,–,–,MIC (Staphylococcus aureus [16]): 0.5 µg/mL; MIC (Staphylococcus aureus [17]): 16 µg/mL; MIC (Staphylococcus aureus [18]): > 64 µg/mL; MIC (Staphylococcus aureus [19]): > 64 µg/mL; MIC (Escherichia coli [9]): 0.24 µg/mL; MIC (Escherichia coli [10]): 64 µg/mL; MIC (Escherichia coli [11]): 64 µg/mL; MIC (Escherichia coli [12]): ≤ 0.03 µg/mL; MIC (Escherichia coli [20]): 0.5 µg/mL; MIC (Escherichia coli [21]): 32 µg/mL
≤ 0.25,C[C@H]1CC[C@]2(NC1)O[C@H]1C[C@H]3[C@@H]4CC[C@H]5CC(NC[C@@H](N)Cc6ccc(F)cc6)CC[C@]5(C)[C@H]4CC[C@]3(C)[C@H]1[C@@H]2C (mixture of isomers),32,4,–,–,–,–,–
–,COLISTIN,–,–,–,–,–,–,MIC (Escherichia coli [9]): 1 µg/mL; MIC (Escherichia coli [22]): 1 µg/mL; MIC (Escherichia coli [20]): 0.5 µg/mL; MIC (Escherichia coli [21]): 32 µg/mL
–,C[C@@H](O)[C@H]1C(=O)N2C(C(=O)O)=C(S[C@@H]3CN[C@H](C(=O)N(C)C)C3)[C@H](C)[C@H]12 [MEROPENEM],–,–,–,–,–,–,MIC (Staphylococcus aureus [16]): 0.12 µg/mL; MIC (Staphylococcus aureus [23]): 0.06 µg/mL; MIC (Staphylococcus aureus [18]): > 16 µg/mL; MIC (Staphylococcus aureus [19]): > 16 µg/mL; MIC (Escherichia coli [9]): ≤ 0.03 µg/mL; MIC (Escherichia coli [10]): > 16 µg/mL; MIC (Escherichia coli [13]): ≤ 0.03 µg/mL; MIC (Escherichia coli [14]): 8 µg/mL
–,Cc1onc(-c2ccccc2)c1C(=O)N[C@@H]1C(=O)N2[C@@H]1SC(C)(C)[C@@H]2C(=O)O [OXACILLIN],–,–,–,–,–,–,MIC (Staphylococcus aureus [16]): 0.24 µg/mL; MIC (Staphylococcus aureus [23]): 0.12 µg/mL; MIC (Staphylococcus aureus [18]): > 128 µg/mL; MIC (Staphylococcus aureus [19]): > 128 µg/mL
–,C[C@H]1CC[C@]2(NC1)O[C@H]1C[C@H]3[C@@H]4CC[C@H]5CC(NC[C@@H](N)Cc6ccc(-c7ccccc7)cc6)CC[C@]5(C)[C@H]4CC[C@]3(C)[C@H]1[C@@H]2C (mixture of isomers),8,2,8,8,2,5.47,–
–,C[C@H]1CC[C@]2(NC1)O[C@H]1C[C@H]3[C@@H]4CC[C@H]5CC(NCCN6CCOCC6)CC[C@]5(C)[C@H]4CC[C@]3(C)[C@H]1[C@@H]2C (mixture of isomers),> 128,64,> 128,128,64,5.19,–
–,C[C@H]1CC[C@]2(NC1)O[C@H]1C[C@H]3[C@@H]4CC[C@H]5CC(NC[C@@H](N)Cc6ccncc6)CC[C@]5(C)[C@H]4CC[C@]3(C)[C@H]1[C@@H]2C (mixture of isomers),> 128,16,> 128,32,16,5.82,–

Compound,MIC (Staphylococcus aureus [3]) [µg/mL],MIC (Escherichia coli [1]) [µg/mL],MIC (Staphylococcus aureus [2]) [µg/mL],MIC (Escherichia coli [4]) [µg/mL],MIC (Escherichia coli [5]) [µg/mL],MIC (Escherichia coli [6]) [µg/mL],pIC50 [7],further results
C[C@H]1CC[C@]2(NC1)O[C@H]1C[C@H]3[C@@H]4CC[C@H]5CC(NC[C@@H](N)Cc6ccc(I)cc6)CC[C@]5(C)[C@H]4CC[C@]3(C)[C@H]1[C@@H]2C (mixture of isomers),≤ 0.25,4,2,8,4,2,5.82,fold change (FC) (Escherichia coli [8]): 2
C[C@H]1CC[C@]2(NC1)O[C@H]1C[C@H]3[C@@H]4CC[C@H]5CC(NCCN)CC[C@]5(C)[C@H]4CC[C@]3(C)[C@H]1[C@@H]2C (stereo partly specified),0.006,32,8,16,8,0.5,5.89,–
